Data reported in US20140121235A1, “Method for Treating S6K-Overexpressing Cancers” (Rush University Medical Center, priority 2012, published 2014).

Tests used:
[1] = system: ERK1/2^T202/Y204 and MEK1/2^S217/S221 phosphorylation; assay: Western blot of MAP kinase pathway phosphorylation in A375 cells; type: cell-based
Description: (§1) A375 cells seeded in a 6-well plate were starved in DMEM medium containing 0.5% FBS for 2 hr and treated with the indicated concentration of A77 1726 or PLX 4720 (1 μM) for another 2 hr (A) or treated with A77 1726 (100 μM) for the indicated time (B & C). Cells were harvested and analyzed for protein phosphorylation by specific antibodies as indicated. Protein loading was monitored by stripping membrane and re-probing with antibodies against non-phosphorylated proteins. […] A375 cells seeded in a 6-well plate were starved in DMEM medium containing 05% FBS for 2 hr and treated with the indicated concentration of A77 1726 in the absence or presence of uridine (200 μM). Phosphorylated and total proteins were analyzed by Western blot as described above.
(§2) A375 cells seeded in 6-well plates were starved in DMEM medium containing 0.5% FBS for 2 hr and then pre-treated with vehicle (0.1% dimethyl sulfoxide), LY294002 (10 μM) (A), PPP (1 μM) (B), or the inhibitors of the MAP kinase pathway (PLX4720, 1 μM; U0126, 10 μM; PD98059, 10 μM) (C) for 1 hr. Cells were then treated with A77 1726 (100 μM) or rapamycin (20 nM) as indicated for 2 hr. Cells were harvested and analyzed for protein phosphorylation by specific antibodies as indicated. Protein loading was monitored by stripping membrane and re-probing with antibodies against non-phosphorylated proteins.
(§3) Cells grown in 6-well plates were harvested and lysed in NP-40 lysis buffer (50 mM Tris-HCI (pH 8.0), 150 mM NaCl, 1% NP-40, 5 mM EDTA, 10 μg/ml aprotinin, 10 μg/ml leupeptin, and 1 mM phenylmethylsulfonyl fluoride). After incubation on ice for 30 min, the cell lysates were prepared by spinning down at 4° C., 15,000 rpm for 15 min. After electrophoresis and transfer to Immobolin membrane, proteins of interest were probed with their specific antibodies, followed by horseradish peroxidase-conjugated goat anti-rabbit IgG and SuperSignal Western Pico enhanced chemiluminoscence substrate (Pierce Chemical Co., Rockford, Ill.).
(§4) The PI-3 and MAP kinase pathways play an important role in cell proliferation, differentiation, and cell cycle progress. Multiple genes in these two pathways are frequently mutated and have a commanding role in driving tumorigenesis and tumor cell proliferation (2; 3). […] Here we tested whether A77 1726 affected the activation of MAP and PI-3 kinase pathways. A375 cells grown in 6-well plates were starved in the media containing 0.5% FBS for 2 hr and then treated with the indicated concentration of A77 1726. […] We next explored the effect of A77 1726 in phosphorylation of the molecules in the PI-3 kinase pathway.

[2] = biological target: recombinant p70 S6 kinase (S6K1) (Homo sapiens, UniProt P23443); assay: In vitro p70 S6 kinase assay (ADP-Glo Kinase assay system); type: biochemical; settings: 30 min pre-incubation, ATP 10 μM, 1 hr, read-out: IC50, inhibition of recombinant S6K1 activity
recombinant p70 S6 kinase (S6K1), sequence (P23443 whole entry): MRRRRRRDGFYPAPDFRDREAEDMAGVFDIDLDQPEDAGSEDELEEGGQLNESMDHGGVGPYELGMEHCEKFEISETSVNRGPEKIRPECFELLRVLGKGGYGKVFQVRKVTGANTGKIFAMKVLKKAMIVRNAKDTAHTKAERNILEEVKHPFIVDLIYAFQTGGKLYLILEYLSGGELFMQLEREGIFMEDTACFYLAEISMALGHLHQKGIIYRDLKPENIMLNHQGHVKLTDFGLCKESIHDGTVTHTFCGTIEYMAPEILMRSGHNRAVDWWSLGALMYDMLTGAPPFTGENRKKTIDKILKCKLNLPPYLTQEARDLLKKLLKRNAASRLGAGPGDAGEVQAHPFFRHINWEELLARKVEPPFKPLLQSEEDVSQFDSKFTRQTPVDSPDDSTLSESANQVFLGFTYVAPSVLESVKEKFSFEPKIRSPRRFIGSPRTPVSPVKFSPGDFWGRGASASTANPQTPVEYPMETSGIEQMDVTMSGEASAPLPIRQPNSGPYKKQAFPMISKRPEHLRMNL
Description: Leflunomide and A77 1726 diluted at the final concentrations as indicated were pre-mixed with S6K1 for 30 min, followed by the addition of peptide substrate of S6K1 and incubation for 1 hr. S6K1 activity was measured by using a ADP-Glo™ system. The experiment was repeated with similar results. The data represents the mean±standard deviation from one experiment in triplicate.
The ability of lefiunomide and A77 1726 to inhibit p70 S6 kinase assay was conducted by using an ADP-Glo™ Kinase assay system (Promega Corporation, Madison, Wis.). Briefly, A77 1726 or leflunomide diluted in the kinase buffer was mixed with recombinant p70 S6 kinase (100 ng/reaction) and incubated at room temperature for 30 min. Peptide substrate of p70 S6 kinase (5 μg/reaction) and ATP (10 μM, final concentration) was added, with a total final volume of 25 μl. After incubation for 1 hr, ADP-Glo™ reagent (25 μl) was added to each reaction. After incubation for 40 min, kinase detection substrate (luciferin) (50 μl/reaction) was added. After incubation fix 30 min, luciferase activity was measured by reading in a luminescence plate reader. The experiment was conducted in triplicate and repeated once with similar results. The data from one experiment were presented as mean±standard deviation.

[3] = system: Raf-1 phosphorylation; assay: Western blot of Raf-1 phosphorylation in A375 cells; type: cell-based
Description: A375 cells seeded in a 6-well plate were starved in DMEM medium containing 0.5% FBS for 2 hr and treated with the indicated concentration of A77 1726 or PLX 4720 (1 μM) for another 2 hr (A) or treated with A77 1726 (100 μM) for the indicated time (B & C). Cells were harvested and analyzed for protein phosphorylation by specific antibodies as indicated. Protein loading was monitored by stripping membrane and re-probing with antibodies against non-phosphorylated proteins. (D) Uridine fails to reverse the effect of A77 1726 on the PI-3 and MAP kinase pathways. A375 cells seeded in a 6-well plate were starved in DMEM medium containing 05% FBS for 2 hr and treated with the indicated concentration of A77 1726 in the absence or presence of uridine (200 μM). Phosphorylated and total proteins were analyzed by Western blot as described above.
Cells grown in 6-well plates were harvested and lysed in NP-40 lysis buffer (50 mM Tris-HCI (pH 8.0), 150 mM NaCl, 1% NP-40, 5 mM EDTA, 10 μg/ml aprotinin, 10 μg/ml leupeptin, and 1 mM phenylmethylsulfonyl fluoride). After incubation on ice for 30 min, the cell lysates were prepared by spinning down at 4° C., 15,000 rpm for 15 min. […]

[4] = system: ribosomal protein S6^S235/S236 phosphorylation; assay: Western blot of S6 phosphorylation in A375 cells; type: cell-based; settings: Homo sapiens, A-375; read-out: IC50 to inhibit S6 phosphorylation in cell culture
Description: as §1, §2, §3, §4

Cc1oncc1C(=O)Nc1ccc(C(F)(F)F)cc1 [leflunomide]
effect on ERK1/2 and MEK phosphorylation ([1]; A375 cells starved in 0.5% FBS, A77 1726 or leflunomide at indicated concentrations, 2 hr): rapidly and potently induced
potency in inducing feedback activation of the MAP kinase pathway ([1]; A375 cells, compared with A77 1726): slightly more potent than A77 1726
IC50 [2]: ~55 µM
effect on Raf-1 phosphorylation [3]: no increased Raf-1 phosphorylation
IC50 [4]: 50 to 75 µM
